Assay results reported in article PMC6022977, “Specificity of Induction of Glycopeptide Antibiotic Resistance in the Producing Actinomycetes” (Antibiotics, 2018).
≈ marks a conversion by molar mass, not a printed value. Like-named read-outs stand apart in the source and are kept apart here. Positions of bridges follow the written chain, without caps; N, C: chain ends. Non-standard residues stand in square brackets, D forms with d. Residues, ends and D or L forms follow the SMILES beside them. *: point of attachment. Ileψ(thiazoline)Cys = CC[C@H](C)[C@H](N)C1=N[C@H](C(=O)*)CS1; dOrn = NCCC[C@@H](N)C(=O)O

What was measured:
[1] = test system: A. teichomyceticus; settings: for MIC, teicoplanin-induced: Actinoplanes teichomyceticus + 10 µg/ml teicoplanin; for MIC, non-induced: Actinoplanes teichomyceticus non-induced
Description: (§1) MICs were measured on solid media, since the standard broth dilution method used in unicellular bacteria to determine MICs by turbidity is compromised in mycelial actinomycetes by the formation of multicellular aggregates and by the coexistence of cells in different physiological states (e.g., vegetative mycelium, aerial mycelium, and spores).
(§2) Cryovials of WCBs were thawed at room temperature and used to inoculate a VSP medium for Nonomuraea spp. and Actinoplanes spp. or YEME for Streptomyces spp. in the presence or the absence of GPAs. The strains were grown to exponential phase (approximately 72 h) at 28 °C with shaking. The mycelium was harvested by centrifugation, suspended in 0.9% (w/v) NaCl, and fragmented by sonication with a Vibracell Albra sonicator 400 W [26]. […] The plates were dried and then incubated at 28 °C. MIC values were determined as the lowest antibiotic concentrations that inhibited visible growth after 10 days of incubation.

[2] = test system: N. gerenzanensis pST30; assay: MIC on solid media, N. gerenzanensis pST30; assay type: cell-based, Nonomuraea gerenzanensis; settings: N. gerenzanensis pST30 (vanRSHAX cluster from A. teichomyceticus); V0.1 agar plates, 28 °C, 10 days; average of three independent experiments
Description: as §1, §2

[3] = test system: S. coelicolor
Description: as §1, §2

[4] = test system: S. coelicolor ∆vanRS; assay: MIC on solid media, S. coelicolor ∆vanRS; assay type: cell-based, Streptomyces coelicolor; settings: MS agar plates, 10^7 CFU sonicated hyphae, 28 °C, 10 days, average of three independent experiments
Description: as §1, §2

[5] = test system: N. gerenzanensis; settings: for MIC, non-induced: Nonomuraea gerenzanensis non-induced
Description: as §1, §2

[6] = test system: VanY activity in N. gerenzanensis pST30; assay type: cell-based, Nonomuraea gerenzanensis; settings: for Effect on VanY activity (membrane extracts): N. gerenzanensis pST30 grown with subinhibitory concentrations of GPAs added at inoculum
Description: To determine the correlation between the antimicrobial activity of the GPAs and their ability to induce the van resistance system in actinomycetes, we followed the enzyme activities corresponding to either VanX or VanY peptidases in cells growing in liquid culture in the presence or absence of subinhibitory concentrations of GPAs (Figure 1 and Figure 2). The D,D-dipeptidase activity of VanX (Figure 1) and the D,D-carboxypeptidase activity of VanY (Figure 2) were measured by determining the amount of D-Ala released from the hydrolysis of the D-Ala-D-Ala dipeptide and of the Nε-acetyl-L-Lys-D-Ala-D-Ala tripeptide, respectively. D-Ala release was measured by using a D-amino acid oxidase coupled to a peroxidase [25, 31].
Figure 2 VanY activity in N. gerenzanensis and N. gerenzanensis pST30 grown in the absence (dotted line) or in the presence (continuous line) of subinhibitory concentrations of GPAs added at the moment of inoculum (see material and methods). VanY-specific activity is defined as the number of nanomoles of D-Ala released by the hydrolysis of Nε-acetyl-L-Lys-D-Ala-D-Ala tripeptide at 37 °C per minute per milligram of protein contained in membrane extracts. […] The values represent the averages from three independent experiments, with a standard deviation of <5%.
(§3) S. coelicolor A3(2), its ΔvanRS mutant, A. teichomyceticus ATCC 31121, N. gerenzanensis ATCC 39727, and N. gerenzanensis pST30 were grown as described above. […] Antibiotics were added to the cultures at the moment of inoculation using concentrations calculated as the half-point of MICs (see below and Table 1), except for vancomycin (10 µg/mL) in S. coelicolor A3(2), as reported by Kwun et al. [10].
Cells were harvested by centrifugation at 3600× g for 20 min at 4 °C, and then they were suspended in 2 mL of 0.9% (w/v) NaCl per gram of cells (wet weight). All of the following manipulations were conducted at 0 to 4 °C. The mycelium was fragmented by sonication with a Sonics Vibracell VCX 130. […]

[7] = test system: VanX activity in S. coelicolor; settings: vancomycin 10 µg/mL
Description: (§4) The D,D-dipeptidase activity of VanX (Figure 1) and the D,D-carboxypeptidase activity of VanY (Figure 2) were measured by determining the amount of D-Ala released from the hydrolysis of the D-Ala-D-Ala dipeptide and of the Nε-acetyl-L-Lys-D-Ala-D-Ala tripeptide, respectively. D-Ala release was measured by using a D-amino acid oxidase coupled to a peroxidase [25, 31].
(§5) VanX-specific activity is defined as the number of nanomoles of D-Ala released by the hydrolysis of D-Ala-D-Ala dipeptide at 37 °C per minute per milligram of protein contained in cytoplasmic fractions.
as §3
Cells were harvested by centrifugation at 3600× g for 20 min at 4 °C, and then they were suspended in 2 mL of 0.9% (w/v) NaCl per gram of cells (wet weight). All of the following manipulations were conducted at 0 to 4 °C. The mycelium was fragmented by sonication with a Sonics Vibracell VCX 130. Sonication was carried out for 5 min on ice, with cycles of 30 s with an amplitude of 90% (90% of 60 Hz), with breaks of 10 s. […]

[8] = test system: VanX activity in N. gerenzanensis pST30; assay type: cell-based, Nonomuraea gerenzanensis; settings: for Growth time within which VanX activity responds to the inducer: N. gerenzanensis pST30, subinhibitory concentrations (vancomycin 10, teicoplanin 1.75, A40926 10 µg/mL), teicoplanin to less extent; for Effect on VanX activity (cytoplasmic fraction): N. gerenzanensis pST30 grown with 10 µg/mL vancomycin, 1.75 µg/mL teicoplanin, 10 µg/mL A40926
Description: as §4, §5, §3
Cells were harvested by centrifugation at 3600× g for 20 min at 4 °C, and then they were suspended in 2 mL of 0.9% (w/v) NaCl per gram of cells (wet weight). All of the following manipulations were conducted at 0 to 4 °C. The mycelium was fragmented by sonication with a Sonics Vibracell VCX 130. Sonication was carried out for 5 min on ice, with cycles of 30 s with an amplitude of 90% (90% of 60 Hz), with breaks of 10 s. The samples were then centrifuged at 39,000× g for 15 min, and the supernatants (cytoplasmic fractions) were collected. An alkaline extraction of the pellets (cell debris and membrane fractions) was carried out by adapting a protocol developed previously for extracting membrane-bound proteins [25, 36]. The sedimented pellets were resuspended in ice-cold distilled water containing proteinase inhibitors (0.19 mg/mL phenylmethanesulfonyl fluoride and 0.7 µg/mL pepstatin, both purchased from Sigma-Aldrich), and then, immediately before centrifugation (28,000× g for 15 min at 4 °C), the pH was adjusted to 12 by adding an appropriate volume of 2.5 N NaOH. Immediately after centrifugation, the supernatants were neutralized to pH 7 by adding 0.5 M sodium acetate (pH 5.4). Enzymatic activities in the supernatant (cytoplasmic fractions) and in the resuspended insoluble fractions (membranes) were assayed as reported previously [36] by measuring the release of D-Ala from commercially available dipeptide (D-Ala-D-Ala, 10 mM; Sigma-Aldrich) and tripeptide (Nε-acetyl-L-Lys-D-Ala-D-Ala, 10 mM; Sigma-Aldrich).

[9] = A. teichomyceticus, V0.1 agar plates, 10^7 CFU sonicated hyphae, 28 °C, 10 days, average of three independent experiments
[10] = after 72h of growth, average of three independent experiments
[11] = after 48h of growth, average of three independent experiments
[12] = S. coelicolor, MS agar plates, 10^7 CFU sonicated hyphae, 28 °C, 10 days, average of three independent experiments
[13] = N. gerenzanensis, V0.1 agar plates, 10^7 CFU sonicated hyphae, 28 °C, 10 days, average of three independent experiments
[14] = Nonomuraea gerenzanensis + 2 µg/ml A40926, after 48h of growth, average of three independent experiments
[15] = Nonomuraea gerenzanensis + 2 µg/ml A40926, after 72h of growth, average of three independent experiments

For `CC[C@H](C)[C@H](N)C1=N[C@H](C(=O)N[C@@H](CC(C)C)C(=O)N[C@H](CCC(=O)O)C(=O)N[C@H](C(=O)N[C@H]2CCCCNC(=O)[C@H](CC(N)=O)NC(=O)[C@@H](CC(=O)O)NC(=O)[C@H](Cc3cnc[nH]3)NC(=O)[C@@H](Cc3ccccc3)NC(=O)[C@H]([C@@H](C)CC)NC(=O)[C@@H](CCCN)NC2=O)[C@@H](C)CC)CS1` [Bacitracin] ({Ileψ(thiazoline)Cys}-L[dE]IK[dOrn]I[dF]H[dD]N; lactam 4-C (inferred); N-terminus assumed), the “Minimal inhibitory concentration (MIC)” value ([1]; 72 h) was 20 ± 1.15 µg/mL (≈ 14.1 µM), the “Minimal inhibitory concentration (MIC)” value [2] was 20 ± 1.2 µg/mL (≈ 14.1 µM) and the “Minimal inhibitory concentration (MIC)” value ([3]; 72 h) was 0.9 ± 0.05 µg/mL (≈ 0.633 µM). For the same compound, the “Minimal inhibitory concentration (MIC)” value [4] was 0.9 ± 0.035 µg/mL (≈ 0.633 µM) and the “Minimal inhibitory concentration (MIC)” value ([5]; 72 h) was 20 ± 1.3 µg/mL (≈ 14.1 µM).
With `CN[C@H](CC(C)C)C(=O)N[C@H]1C(=O)N[C@@H](CC(N)=O)C(=O)N[C@H]2C(=O)N[C@H]3C(=O)N[C@H](C(=O)N[C@H](C(=O)O)c4cc(O)cc(O)c4-c4cc3ccc4O)[C@H](O)c3ccc(c(Cl)c3)Oc3cc2cc(c3O[C@@H]2O[C@H](CO)[C@@H](O)[C@H](O)[C@H]2O[C@H]2C[C@](C)(N)[C@H](O)[C@H](C)O2)Oc2ccc(cc2Cl)[C@H]1O` [Vancomycin] the “Minimal inhibitory concentration (MIC)” value [1, 9] was 90 ± 4.2 µg/mL (≈ 62.1 µM), the MIC, teicoplanin-induced [1, 10] was 90 ± 2.1 µg/mL and the MIC, non-induced [1, 11] was 90 ± 2.5 µg/mL (≈ 62.1 µM). The MIC, non-induced [1, 10] was 90 ± 1.6 µg/mL (≈ 62.1 µM), the “Minimal inhibitory concentration (MIC)” value [2] was 20 ± 1.05 µg/mL (≈ 13.8 µM) and the “Minimal inhibitory concentration (MIC)” value [3, 12] was over 100 µg/mL. The “Effect on VanY activity (membrane extracts)” value [6] was “significantly induced”, the “Growth time at which induced VanY activity reaches its maximum value” ([6]; N. gerenzanensis pST30 induced by vancomycin) was 96 h and the “Change of level of VanX enzyme activity within the first 24 h from the induction” value [7] was “doubled”. The “Minimal inhibitory concentration (MIC)” value [4] was 1.25 ± 0.03 µg/mL (≈ 0.863 µM), the “Minimal inhibitory concentration (MIC)” value [5, 13] was 20 ± 1.6 µg/mL (≈ 13.8 µM) and the MIC, A40926-induced [5, 14] was 32 ± 0.9 µg/mL. The MIC, A40926-induced [5, 15] was 32 ± 0.8 µg/mL, the MIC, non-induced [5, 11] was 20 ± 0.8 µg/mL (≈ 13.8 µM) and the MIC, non-induced [5, 10] was 20 ± 0.5 µg/mL (≈ 13.8 µM). The “Growth time within which VanX activity responds to the inducer” value [8] was at most 48 h and the “Effect on VanX activity (cytoplasmic fraction)” value [8] was “induced”.
With Ramoplanin the “Minimal inhibitory concentration (MIC)” value [1, 9] was 20 ± 1 µg/mL, the “Minimal inhibitory concentration (MIC)” value [2] was 20 ± 1.1 µg/mL and the “Minimal inhibitory concentration (MIC)” value [3, 12] was 0.9 ± 0.045 µg/mL. For the same compound, the “Minimal inhibitory concentration (MIC)” value [4] was 0.9 ± 0.025 µg/mL and the “Minimal inhibitory concentration (MIC)” value [5, 13] was 20 ± 1.2 µg/mL.
For Teicoplanin, the “Minimal inhibitory concentration (MIC)” value [1, 9] was 20 ± 1.5 µg/mL, the “MIC, teicoplanin-induced” value [1, 10] was 20±0.85 g/ml and the “MIC, non-induced” value [1, 11] was 20±1 g/ml. For the same compound, the “MIC, non-induced” value [1, 10] was 20±0.9 g/ml, the “Minimal inhibitory concentration (MIC)” value [2] was 2.75 ± 0.15 µg/mL and the “Minimal inhibitory concentration (MIC)” value [3, 12] was 1.5 ± 0.025 µg/mL. For the same compound, the “Effect on VanY activity (membrane extracts)” value [6] was “comparable to the basal level”, the “Minimal inhibitory concentration (MIC)” value [4] was 1.5 ± 0.02 µg/mL and the “Minimal inhibitory concentration (MIC)” value [5, 13] was 0.9 ± 0.01 µg/mL. For the same compound, the “MIC, A40926-induced” value [5, 14] was 1.2±0.03 g/ml, the “MIC, A40926-induced” value [5, 15] was 1.2±0.02 g/ml and the “MIC, non-induced” value [5, 11] was 0.9±0.01 g/ml. For the same compound, the “MIC, non-induced” value [5, 10] was 0.9±0.015 g/ml, the “Growth time within which VanX activity responds to the inducer” value [8] was at most 48 h and the “Effect on VanX activity (cytoplasmic fraction)” value [8] was “induced”.
